Literature values as cited in US12576027B2, “Diclofenac topical formulation with a high absorption rate” (IBSA INSTITUT BIOCHIMIQUE SA, priority 2021, dated 2026).

Details: orally administered

absorption: almost complete
time to high hematic peaks from administration: ≤ 2 h
SMILES: O=C(O)Cc1ccccc1Nc1c(Cl)cccc1Cl [diclofenac, 2-[(2,6-dichlorophenyl)-amino]benzeneacetic acid]
